Results reported in US8512940B2, “Method for preserving liver in a solution comprising dibutyryl cAMP” (Otsuka Pharmaceutical Factory, Inc., priority 2005, dated 2013).

Tested on: liver grafts
Format: in vivo
Conditions: content in ET-K+db-cAMP (2 mM) preservation solution, liver transplanted without final rinsing
Procedure: Eight-week-old inbred male Lewis rat (SLC) was housed in a chip-bedded cage at room temperature under a 12 hr light/dark cycle and given free access to a standard chow diet and water before operation.
Group I: UW solution group (n=8), Group II: New ET-K solution group (n=6), Group III: modified New ET-K solution group (n=8). The liver was preserved under cooling in each preservation solution for 24 hr, and then syngeneic liver transplantation was performed. Rats were randomly assigned to each group.
In the UW group, the blood in the donor liver portal vein blood vessel was first replaced with 10 ml of Ringer's solution, and then the blood vessel was perfused with 10 ml of UW solution. In the New ET-K group and the modified New ET-K group, the blood in the donor liver portal vein blood vessel was directly replaced with 20 ml of each preservation solution. In all groups, the perfusion with the preservation solution was performed at a pressure of 15 cmH2O. Then, liver grafts were preserved in respective preservation solutions at 4° C. for 24 hr. […]
In the same manner as in Example 1, syngenic liver transplantation was performed on 8-week-old inbred male Lewis rats (SLC), and the survival rate after transplantation of the liver preserved in preservation solutions containing various concentrations of nitroglycerin (NTG) was evaluated. […]

O=[N+]([O-])OCC(CO[N+](=O)[O-])O[N+](=O)[O-] [nitroglycerin]
nitroglycerin content at which toxicity due to nitroglycerin is hardly expressed: not more than 0.0044 mM
